In PubChem BioAssay (NCI):
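Interpolation was linear, between the two tested concentrations surrounding the appropriate level; five concentrations were tested over 48 hours in 96-well plates. GI50 = concentration required for 50% inhibition of growth. TGI marks complete inhibition of growth.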

Tests used:
Test in all cases: DTP human tumour cell line panel, 48 h
TK-10 renal = test system: TK-10 renal
OVCAR-8 ovarian = test system: OVCAR-8 ovarian
KM12 colon = test system: KM12 colon
SK-MEL-5 melanoma = test system: SK-MEL-5 melanoma
SK-MEL-28 melanoma = test system: SK-MEL-28 melanoma
LOX IMVI melanoma = test system: LOX IMVI melanoma
CCRF-CEM leukemia = test system: CCRF-CEM leukemia
UACC-62 melanoma = test system: UACC-62 melanoma
HCT-116 colon = test system: HCT-116 colon

Structure (SMILES)	GI50 (TK-10 renal) [µM]	TGI (TK-10 renal) [µM]	GI50 (OVCAR-8 ovarian) [µM]	TGI (OVCAR-8 ovarian) [µM]	GI50 (KM12 colon) [µM]	TGI (KM12 colon) [µM]	GI50 (SK-MEL-5 melanoma) [µM]	TGI (SK-MEL-5 melanoma) [µM]	GI50 (SK-MEL-28 melanoma) [µM]	TGI (SK-MEL-28 melanoma) [µM]	GI50 (LOX IMVI melanoma) [µM]	TGI (LOX IMVI melanoma) [µM]	GI50 (CCRF-CEM leukemia) [µM]	TGI (CCRF-CEM leukemia) [µM]	GI50 (UACC-62 melanoma) [µM]	TGI (UACC-62 melanoma) [µM]	TGI (HCT-116 colon) [µM]	GI50 (HCT-116 colon) [µM]
CC(C)OP(=O)(OC(C)C)C(N(C)C)P(=O)(OC(C)C)OC(C)C.[Cl][Sn]([Cl])([Cl])[c]1ccccc1	14.4	> 100	3.16	13.2	3.6	> 100	1.65	3.16	5.01	75.4	2.26	6.97	2.07	18.6	–	–	–	–
CC(C)OP(=O)(CP(=O)(OC(C)C)OC(C)C)OC(C)C.[CH3][Sn]([Br])([Br])[Br]	> 100	> 100	> 100	> 100	> 100	> 100	> 100	> 100	> 100	> 100	> 100	> 100	> 100	> 100	> 100	> 100	–	–
COc1cc2c3c(c1OC)-c1ccccc1C(C(OC(C)=O)c1ccccc1)C3N(C)CC2 (centres undefined)	–	> 100	–	> 100	–	> 100	–	49.6	–	> 100	–	> 100	–	> 100	–	> 100	> 100	–
Cc1nnc2n1N=C(CC(=O)c1ccc(O)cc1O)CN2N	–	> 100	–	–	–	> 100	–	> 100	–	> 100	–	> 100	–	> 100	–	> 100	> 100	–
O=C1[C@H]2C(c3ccccc3)=NN(C(=O)c3ccccc3)[C@H]2C(=O)N1c1ccccc1	–	> 100	–	> 100	–	> 100	–	–	–	> 100	–	> 100	–	> 100	–	> 100	> 100	–
COc1c(O)c(OC)c(C(=O)/C=C/c2ccccc2)c(O)c1OC	–	> 100	–	38.1	–	> 100	–	46	–	> 100	–	87.2	–	> 100	–	–	34.5	–
O=c1c2ccccc2nc(-c2ccccc2)n1NCC1(O)OCC(O)C(O)C1O (centres undefined)	–	> 100	–	> 100	–	> 100	–	> 100	–	> 100	–	–	–	> 100	–	> 100	> 100	–
COC(=O)/C(C#N)=C1\N=NNN1CCCN1CCOCC1	–	> 100	–	> 100	–	> 100	–	> 100	–	> 100	–	> 100	–	> 100	–	> 100	> 100	–
COc1cc(C(c2cc3c(cc2O)OCO3)N2CCCC2)cc(OC)c1OC (centres undefined)	–	37.5	–	34	–	37.2	–	41.5	–	41.4	–	31.9	–	5.95	–	33.9	29.8	–
O=C1OCC(C(=O)c2cccc(O)c2)C1=O (centres undefined)	–	> 100	–	> 100	–	> 100	–	> 100	–	> 100	–	> 100	–	–	–	> 100	> 100	–
O=C(OCc1ccccc1CN1CCOCC1)c1ccc(Br)cc1	–	> 100	–	> 100	–	–	–	41.9	–	> 100	–	> 100	–	–	–	> 100	> 100	–
CN1CCCC1c1cccnc1.O=C(O)c1ccccc1O.O=C([O-])c1ccccc1[OH2+].O=C([O-])c1ccccc1[OH2+].O=C([O-])c1ccccc1[OH2+].[Mn+2] (centres undefined)	> 100	> 100	> 100	> 100	> 100	> 100	> 100	> 100	> 100	> 100	> 100	> 100	23.3	> 100	> 100	> 100	> 100	> 100
CN1CC2(CCCCC2)C(O)C12C=CCCC2 (centres undefined)	–	> 100	–	> 100	–	> 100	–	> 100	–	> 100	–	> 100	–	> 100	–	> 100	–	–
CCOC(=O)CCC1(C(=O)OC)CCCC1=O (centres undefined)	–	> 100	–	> 100	–	> 100	–	> 100	–	> 100	–	> 100	–	–	–	–	> 100	–
c1ccc2c(c1)CCCc1cc3ccccc3nc1-2	–	> 100	–	> 100	–	> 100	–	> 100	–	> 100	–	–	–	> 100	–	> 100	> 100	–
CC1OC(=O)N(CCCC=C2SCCCS2)C1=O (centres undefined)	–	> 100	–	> 100	–	> 100	–	–	–	> 100	–	> 100	–	> 100	–	> 100	> 100	–
CC(=O)[CH-]C(=O)c1ccccc1.CC(=O)[CH-]C(=O)c1ccccc1.[O]=[U+2]=[O]	37.8	> 100	35	> 100	3.67	9.83	26.8	> 100	36.2	> 100	25.4	> 100	27.8	> 100	33.1	> 100	–	–
